This is an account of results in US5719154A, “Oxazolidinone antibacterial agents having a six-membrane heteroaromatic ring” (priority 1996, dated 1998).

The subject of one assay is S. aureus UC ® No. 9213. Kind of assay: Murine Assay, in vivo antimicrobial activity (ED50 from mortality ratios) against S. aureus UC No. 9213. The arrangement: species or system Staphylococcus aureus (infected female mice). As to conditions: oral or subcutaneous, survival six days; for ED50: Staphylococcus aureus, UC9213, 144 h, female mice infected intraperitoneally with S. aureus UC No. 9213, drug one hour and five hours after infection, probit analysis. On the procedure: Antimicrobial activity is tested in vivo using the Murine Assay procedure. Groups of female mice (six mice weighing 18-20 grams each) are injected intraperiteneally with bacteria which are thawed just prior to use and suspended in brain heart infusion with 4% brewers yeast (Staphylococcus aureus) or brain heart infusion (Streptecoccus species). Antibiotic treatment at six dose levels per drug is administered one hour and five hours after infection by either oral intubation or subcutaneous routes. Survival is observed daily for six days. ED50 values based on mortality ratios are calculated using probit analysis. The subject compounds are compared against drug U-100592 as controls. […] The detailed information with respect to the structure and in vivo efficacy evaluations of U-100592 is summarized in Upjohn Oxazolidinone Antibacterial Agents, Posters Presented at the 35th Interscience Conference on Antimicrobial Agents and Chemotherapy, San Francisco, 17-20 September 1995.

Assay [1] has as its system bacteria (Staphylococcus aureus or Streptecoccus species). As to conditions: extensively evaluated in this animal model versus vancomycin; cited from earlier work.

For orientation: ED50 means the dose at which the effect has come halfway, by size or by number of responders.

On to `CC(=O)NC[C@H]1CN(c2ccc(N3CCN(c4ncccn4)CC3)c(F)c2)C(=O)O1` [Example 1], for which the ED50 in the assay on S. aureus UC ® No. 9213 stood at 6.2 mg/kg.
Same read-out and setting: as for `CC(=O)NC[C@H]1CN(c2ccc(N3CCN(c4ccncn4)CC3)c(F)c2)C(=O)O1` [Example 2], the figure is 4.4 mg/kg.
As for `CC(=O)NC[C@H]1CN(c2ccc(N3CCN(c4cccnn4)CC3)c(F)c2)C(=O)O1` [Example 3], the ED50 with S. aureus UC ® No. 9213 came out at 8.8 mg/kg.
Still for that read-out and setting: the figure for `CC(=O)NC[C@H]1CN(c2ccc(N3CCN(c4ccc(C)nn4)CC3)c(F)c2)C(=O)O1` [Example 4] is 6.3 mg/kg.
For the molecule `CC(=O)NC[C@H]1CN(c2ccc(N3CCN(C(=O)CO)CC3)c(F)c2)C(=O)O1` [Example U-100592, reference compound], the potency versus vancomycin entry in assay [1] is “equipotent to vancomycin”. Moreover, the “U-100592 ED50” value in the assay on S. aureus UC ® No. 9213 (comparator control for the Example of the same line, female mice, S. aureus UC No. 9213, 8640 min) came to 8.7 mg/kg.
